# Experimental data taken from patent US12655116B2, “Substituted isophthalic acid diamides” (Bayer Aktiengesellschaft, priority 2020, dated 2026).
# Experiments:
# [1] = system: ABUTH; test: Post-emergence herbicidal action against ABUTH; type: in vivo, Abutilon theophrasti; conditions: visual assessment about 3 weeks after treatment vs untreated controls
# How it was run: (§1)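 Weeds in sandy loam soil received a post-emergence spray at the one-leaf stage. Compounds were applied as WP or EC in water, 600 to 800 l/ha, with 0.2% wetting agent. Activity in % was judged visually after roughly 3 weeks against untreated plants.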
# [2] = system: AVEFA; test: Pre-emergence herbicidal action against AVEFA; type: in vivo, Avena fatua; conditions: 80 g/ha, pre-emergence
# How it was run: (§2)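 Visual rating at 3 weeks vs untreated pots; 0–100% scale, 100% = plants died. Treatment: aqueous WP/EC spray onto covering soil, 600–800 l/ha, 0.2% wetter, seeds in sandy loam.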
# [3] = system: VERPE; test: Post-emergence herbicidal action against VERPE; type: in vivo, Veronica persica
# How it was run: as §1
# [4] = system: ECHCG; test: Pre-emergence herbicidal action against ECHCG; type: in vivo, Echinochloa crus-galli; conditions: 80 g/ha
# How it was run: as §2
# [5] = system: AVEFA; test: Post-emergence herbicidal action against AVEFA; type: in vivo, Avena fatua; conditions: 20 g/ha, visual assessment about 3 weeks after treatment, 100% = plants have died, 0% = like control plants
# How it was run: as §1
# [6] = system: MATIN; test: Post-emergence herbicidal action against MATIN; type: in vivo, Matricaria inodora
# How it was run: as §1
# [7] = system: VERPE; test: Pre-emergence herbicidal action against VERPE; type: in vivo, Veronica persica; conditions: dosage 80 g/ha
# How it was run: as §2
# [8] = system: STEME; test: Post-emergence herbicidal action against STEME; type: in vivo, Stellaria media
# How it was run: as §1
# [9] = system: PHBPU; test: Post-emergence herbicidal action against PHBPU; type: in vivo, Pharbitis purpurea
# How it was run: as §1
# [10] = system: DIGSA; test: Pre-emergence herbicidal action against DIGSA; type: in vivo, Digitaria sanguinalis
# How it was run: as §2
# [11] = system: ABUTH; test: Pre-emergence herbicidal action against ABUTH; type: in vivo, Abutilon theophrasti
# How it was run: as §2
# [12] = system: SETVI; test: Post-emergence herbicidal action against SETVI; type: in vivo, Setaria viridis; conditions: dosage 20 g/ha
# How it was run: as §1
# [13] = system: PHBPU; test: Pre-emergence herbicidal action against PHBPU; type: in vivo, Pharbitis purpurea; conditions: dosage 80 g/ha
# How it was run: as §2
# [14] = system: ECHCG; test: Post-emergence herbicidal action against ECHCG; type: in vivo, Echinochloa crus-galli
# How it was run: as §1
# [15] = system: STEME; test: Pre-emergence herbicidal action against STEME; type: in vivo, Stellaria media
# How it was run: as §2
# [16] = system: AMARE; test: Pre-emergence herbicidal action against AMARE; type: in vivo, Amaranthus retroflexus
# How it was run: as §2
# [17] = system: VIOTR; test: Pre-emergence herbicidal action against VIOTR; type: in vivo, Viola tricolor
# How it was run: as §2
# [18] = system: MATIN; test: Pre-emergence herbicidal action against MATIN; type: in vivo, Matricaria inodora
# How it was run: as §2
# [19] = system: SETVI; test: Pre-emergence herbicidal action against SETVI; type: in vivo, Setaria viridis; conditions: dosage 80 g/ha
# How it was run: as §2
# [20] = system: DIGSA; test: Post-emergence herbicidal action against DIGSA; type: in vivo, Digitaria sanguinalis
# How it was run: as §1
# [21] = system: POLCO; test: Pre-emergence herbicidal action against POLCO; type: in vivo, Polygonum convolvulus; conditions: dosage 80 g/ha
# How it was run: as §2
# [22] = system: ALOMY; test: Pre-emergence herbicidal action against ALOMY; type: in vivo, Alopecurus myosuroides; conditions: 80 g/ha, pre-emergence, scored visually after 3 weeks vs untreated controls (100% = plants have died, 0% = like control plants)
# How it was run: as §2
# [23] = system: VIOTR; test: Post-emergence herbicidal action against VIOTR; type: in vivo, Viola tricolor
# How it was run: as §1
# [24] = system: AMARE; test: Post-emergence herbicidal action against AMARE; type: in vivo, Amaranthus retroflexus; conditions: 20 g/ha, visual assessment about 3 weeks after treatment, 100% = plants have died, 0% = like control plants
# How it was run: as §1
# [25] = 80 g/ha, scored visually after 3 weeks vs untreated controls (100% = plants have died, 0% = like control plants)
# [26] = dosage 20 g/ha, scored visually after 3 weeks vs untreated controls, 100% = plants have died, 0% = like control plants
# [27] = 20 g/ha, scored visually after 3 weeks vs untreated controls, 100% = plants have died, 0% = like control plants
# [28] = Tripleurospermum inodorum, 504 h, dosage 20 g/ha
compound,measurement,setting,value
CCCn1nnnc1NC(=O)c1ccc(C(F)(F)F)c(C(=O)NC2CC2)c1CC [Example 3-273],Post-emergence action against ABUTH in %,[1]; dosage 5 g/ha,80%
same,Post-emergence action against ABUTH in %,[1]; dosage 20 g/ha,90%
same,Pre-emergence action against AVEFA in %,[2],90%
same,Post-emergence action against VERPE in %,[3]; 20 g/ha,80%
same,Pre-emergence action against ECHCG in %,[4],80%
same,Post-emergence action at 20 g/ha against AVEFA in %,[5],80%
same,Post-emergence action against MATIN in %,[6]; dosage 5 g/ha,80%
same,Post-emergence action against MATIN in %,[6]; dosage 20 g/ha,90%
same,Pre-emergence action against VERPE in %,[7],100%
same,Post-emergence action against STEME in %,[8]; 20 g/ha,90%
same,Post-emergence action against STEME in %,[8]; dosage 5 g/ha,80%
same,Post-emergence action against PHBPU in %,[9]; dosage 20 g/ha,80%
same,Pre-emergence action against DIGSA in %,[10]; dosage 20 g/ha,90%
same,Pre-emergence action against DIGSA in %,[10]; dosage 80 g/ha,100%
same,Pre-emergence action against ABUTH (herbicidal activity),[11]; [25],100%
same,Pre-emergence action against ABUTH (herbicidal activity in percent),[11]; [26],90%
same,Post-emergence action against SETVI in %,[12],80%
same,Pre-emergence action against PHBPU in %,[13],90%
same,Post-emergence action against ECHCG in %,[14]; dosage 5 g/ha,80%
same,Post-emergence action against ECHCG in %,[14]; dosage 20 g/ha,80%
same,Pre-emergence action against STEME in %,[15]; dosage 20 g/ha,90%
same,Pre-emergence action against STEME in %,[15]; dosage 80 g/ha,100%
same,Pre-emergence action against AMARE in %,[16]; [27],100%
same,Pre-emergence action against AMARE in %,[16]; [25],100%
same,Pre-emergence action against VIOTR in %,[17]; dosage 20 g/ha,100%
same,Pre-emergence action against VIOTR in %,[17]; dosage 80 g/ha,100%
same,Pre-emergence action against MATIN in %,[18]; dosage 20 g/ha,90%
same,Pre-emergence action against MATIN in %,[18]; dosage 80 g/ha,100%
same,Pre-emergence action against SETVI in %,[19],100%
same,Post-emergence action against DIGSA in %,[20]; 5 g/ha,80%
same,Post-emergence action against DIGSA,[20]; 20 g/ha,90%
CCCn1nnnc1NC(=O)c1ccc(C(F)(F)F)c(C(=O)NCC)c1Br [Example 3-208],Post-emergence action against ABUTH in %,[1]; dosage 5 g/ha,90%
same,Post-emergence action against ABUTH in %,[1]; dosage 20 g/ha,90%
same,Pre-emergence action against AVEFA in %,[2],100%
same,Pre-emergence action against POLCO in %,[21],80%
same,Pre-emergence action against ECHCG in %,[4],80%
same,Post-emergence action at 20 g/ha against AVEFA in %,[5],80%
same,Post-emergence action against MATIN in %,[6]; dosage 5 g/ha,90%
same,Post-emergence action against MATIN in %,[6]; dosage 20 g/ha,90%
same,Post-emergence action against STEME in %,[8]; 20 g/ha,90%
same,Post-emergence action against STEME in %,[8]; dosage 5 g/ha,80%
same,Post-emergence action against PHBPU in %,[9]; dosage 5 g/ha,80%
same,Post-emergence action against PHBPU in %,[9]; dosage 20 g/ha,90%
same,Pre-emergence action against DIGSA in %,[10]; dosage 80 g/ha,80%
same,Pre-emergence action against ABUTH (herbicidal activity),[11]; [25],100%
same,Pre-emergence action against ABUTH (herbicidal activity in percent),[11]; [26],100%
same,Pre-emergence action against ALOMY (herbicidal activity),[22],90%
same,Post-emergence action against VIOTR in %,[23]; 5 g/ha,100%
same,Post-emergence action against VIOTR in %,[23]; 20 g/ha,100%
same,Post-emergence action at 20 g/ha against AMARE in %,[24],90%
same,Pre-emergence action against STEME in %,[15]; dosage 20 g/ha,90%
same,Pre-emergence action against STEME in %,[15]; dosage 80 g/ha,100%
same,Pre-emergence action against AMARE in %,[16]; [27],100%
same,Pre-emergence action against AMARE in %,[16]; [25],100%
same,Pre-emergence action against VIOTR in %,[17]; dosage 80 g/ha,100%
same,Pre-emergence action against MATIN in %,[18]; dosage 20 g/ha,100%
same,Pre-emergence action against MATIN in %,[18]; dosage 80 g/ha,100%
same,Pre-emergence action against SETVI in %,[19],100%
CNC(=O)c1c(C(F)F)ccc(C(=O)Nc2nnnn2C)c1C [Example 1-44],pest or weed control at 5 g/ha,"[1]; Abutilon theophrasti, 504 h, dosage 5 g/ha",90%
same,pest or weed control at 20 g/ha,"[1]; Abutilon theophrasti, 504 h, dosage 20 g/ha",100%
same,pest or weed control at 80 g/ha,"[2]; Avena fatua, 504 h",90%
same,pest or weed control at 5 g/ha,"[3]; Veronica persica, 504 h, 5 g/ha",80%
same,pest or weed control at 20 g/ha,"[3]; Veronica persica, 504 h, 20 g/ha",100%
same,pest or weed control at 80 g/ha,"[4]; Echinochloa crus-galli, 504 h",90%
same,pest or weed control at 20 g/ha,"[5]; Avena fatua, 504 h",80%
same,pest or weed control at 5 g/ha,"[6]; Tripleurospermum inodorum, 504 h, dosage 5 g/ha",80%
same,pest or weed control at 20 g/ha,[6]; [28],90%
same,pest or weed control at 20 g/ha,"[8]; Stellaria media, 504 h, 20 g/ha",80%
same,pest or weed control at 5 g/ha,"[8]; Stellaria media, 504 h, dosage 5 g/ha",80%
same,pest or weed control at 20 g/ha,"[9]; Ipomoea purpurea, 504 h, dosage 20 g/ha",80%
same,pest or weed control at 20 g/ha,"[10]; Digitaria sanguinalis, 504 h, dosage 20 g/ha",90%
same,pest or weed control at 80 g/ha,"[10]; Digitaria sanguinalis, 504 h, dosage 80 g/ha",100%
same,pest or weed control at 80 g/ha,"[11]; Abutilon theophrasti, 504 h, 80 g/ha, scored visually after 3 weeks vs untreated controls (100% = plants have died, 0% = like control plants)",100%
same,pest or weed control at 20 g/ha,"[11]; Abutilon theophrasti, 504 h, dosage 20 g/ha, scored visually after 3 weeks vs untreated controls, 100% = plants have died, 0% = like control plants, read-out: Pre-emergence action against ABUTH (herbicidal activity in percent)",100%
same,pest or weed control at 20 g/ha,"[12]; Setaria viridis, 504 h",90%
same,pest or weed control at 80 g/ha,"[22]; Alopecurus myosuroides, 504 h",90%
same,pest or weed control at 20 g/ha,"[23]; Viola tricolor, 504 h, 20 g/ha",80%
same,pest or weed control at 80 g/ha,"[13]; Ipomoea purpurea, 504 h",80%
same,pest or weed control at 20 g/ha,"[14]; Echinochloa crus-galli, 504 h, dosage 20 g/ha",80%
same,pest or weed control at 20 g/ha,"[24]; Amaranthus retroflexus, 504 h",100%
same,pest or weed control at 20 g/ha,"[15]; Stellaria media, 504 h, dosage 20 g/ha",90%
same,pest or weed control at 80 g/ha,"[15]; Stellaria media, 504 h, dosage 80 g/ha",90%
same,pest or weed control at 20 g/ha,"[16]; Amaranthus retroflexus, 504 h, 20 g/ha, scored visually after 3 weeks vs untreated controls, 100% = plants have died, 0% = like control plants",100%
same,pest or weed control at 80 g/ha,"[16]; Amaranthus retroflexus, 504 h, 80 g/ha, scored visually after 3 weeks vs untreated controls, 100% = plants have died, 0% = like control plants",100%
same,pest or weed control at 80 g/ha,"[17]; Viola tricolor, 504 h, dosage 80 g/ha",90%
same,pest or weed control at 20 g/ha,[18]; [28],90%
same,pest or weed control at 80 g/ha,"[18]; Tripleurospermum inodorum, 504 h, dosage 80 g/ha",90%
same,pest or weed control at 80 g/ha,"[19]; Setaria viridis, 504 h",100%
same,pest or weed control at 5 g/ha,"[20]; Digitaria sanguinalis, 504 h, 5 g/ha",80%
same,pest or weed control at 20 g/ha,"[20]; Digitaria sanguinalis, 504 h, 20 g/ha",90%
